Earlier results, collected in patent publication US5177064A, “Targeted drug delivery via phosphonate derivatives” (University of Florida, priority 1990, dated 1993).
Converted amounts (≈) assume the structure as drawn.

What was measured:
[1] = human, in vivo
encephalitis [2] = conditions: treatment of encephalitis in vitro and in vivo
HCMV = conditions: in vitro; read-out: IC50 against HCMV
[3] = at 37° C.
[4] = humans
encephalitis [5] = tested on: encephalitis
[6] = intravenous, biphasic elimination

Compound: Cc1cn([C@H]2C[C@H](N=[N+]=[N-])[C@@H](CO)O2)c(=O)[nH]c1=O [AZT, azidothymidine]
- bioavailability [1]: about 60%

Compound: Nc1ncnc2c1ncn2[C@@H]1O[C@H](CO)[C@@H](O)[C@@H]1O [Ara-A, 9-β-D-arabinofuranosyladenine]
- log P (octanol/water) (octanol/water): negative

Compound: Nc1nc(O)c2ncn(COC(CO)CO)c2n1 [DHPG, Dihydroxypropoxymethylgaunine]
- effectiveness relative to acyclovir (encephalitis [2]): at least 100 fold
- IC50 (HCMV): ~2500 nM
- aqueous solubility [3]: 5.1 mg/mL (≈ 20 mM)
- drug excreted unchanged by the kidneys [4]: 99%
- oral bioavailability ([4]; based on urinary excretion): 3-4.6%
- α-phase half-life [4, 6]: 13.8 min
- β-phase half-life [4, 6]: 2.53 h

Compound: Cc1cn([C@@H]2O[C@H](CO)[C@@H](O)[C@@H]2F)c(=O)[nH]c1=O [FMAU]
- doses producing irreversible neurological damage (encephalitis [5]; in vivo): greater than 32 mg
- therapeutic index (encephalitis [5]; treating encephalitis): greater than 3,000

Compound: NC(=O)c1ncn([C@@H]2O[C@H](CO)[C@@H](O)[C@H]2O)n1 [ribavirin, 1-β-D-ribofuranosyl-1,2,4-triazole-3-carboxamide]
- log P: 2.06
